From patent US20230348447A1, “OXAZOLIDINONE COMPOUNDS, LIPOSOME COMPOSITIONS COMPRISING OXAZOLIDINONE COMPOUNDS AND METHOD OF USE THEREOF” (priority 2020, published 2023)
Values after ≈ are worked out from the molar mass of the structure shown. Like-named read-outs stand apart in the source and are kept apart here.

Columns and labels:
[1] = Liposome loading / encapsulation efficiency (General protocol); conditions: for Maximum encapsulated drug payload: 0.5 M AS; for maximum drug load: no buffer
[2] = test system: human hepatocyte/liver (HepG2; ATCC #HB8065) cells; experiment: In vitro cytotoxicity (PrestoBlue cell viability), HepG2; format: cell-based
[3] = test system: M. Tuberculosis Erdman or H37Rv vs VERO or HepG2 cells; experiment: Selectivity Index (mammalian cell IC50 / bacterial MIC); design: species or system Mycobacterium tuberculosis
MRSA ATCC BAA-1556 = experiment: MIC against methicillin resistant Staphylococcus aureus (MRSA)
MRSA ATCC 43300 = experiment: as above; conditions: read-out: MRSA MIC, ATCC 43300
[4] = test system: mitochondrial protein synthesis (COX-1/SDH-A ratio) in H9C2 rat heart myoblast cells; experiment: Mitochondrial protein synthesis inhibition (MitoBiogenesis in-cell ELISA, COX-1/SDH-A); format: cell-based; conditions: 120 h, five days, read-out: MPS IC50
MRSA 880 NR-49120 = experiment: MIC against methicillin resistant Staphylococcus aureus (MRSA); conditions: read-out: MRSA MIC, 880 NR-49120
M.tb Erdman = experiment: Broth microdilution MIC with Alamar blue endpoint (MABA) / OD600; format: cell-based, Mycobacterium tuberculosis
M.tb H37Rv = experiment: as above; format: cell-based, Mycobacterium tuberculosis
[5] = test system: African green monkey kidney (Vero; ATCC # CCL81) cells; experiment: In vitro cytotoxicity (PrestoBlue cell viability), Vero; format: cell-based
[6] = Aqueous solubility (visually clear solutions); format: physicochemical; conditions: aqueous, 1 N HCl and/or water added
Protocol: Working stocks of the compounds were prepared as follows: to an aliquot of a compound (free base) in a powder form 1-1.5 equivalents of HCl in the form of 1 N aqueous solution was added, and the mixture was vortexed until homogeneity. To the resulting cake or syrup, water was added typically to the final 10 mg/ml, and complete dissolution was observed. In some instances, 0.95 equivalents of HCl were added to the free base form of the drug, and 20 mg/ml stock solution was prepared.
Aqueous solubility of the compounds of the present disclosure is illustrated by the following observations of obtaining visually clear solutions: […]

[7] = test system: MRSA strain MW-2 (USA 400); experiment: Rabbit left-sided aortic valve endocarditis model of MRSA; format: in vivo, Staphylococcus aureus (in New Zealand white rabbits); conditions: for Kidneys, MRSA count / Liver, MRSA count / Lungs, MRSA count / Spleen, MRSA count / Vegetations, MRSA count: rabbits, DAP 2 mg/kg daily for four days alone
[8] = 1 N TEA-SOS, DL0 750-1500 g/mol PhL
[9] = Homo sapiens, HepG2, 72 h, read-out: Cell viability IC50, HepG2
[10] = read-out: MRSA MIC, ATCC BAA-1556
[11] = Mycobacterium tuberculosis, ERDMAN, read-out: Mycobacterium tuberculosis MIC, Erdman
[12] = Mycobacterium tuberculosis, H37RV, read-out: MIC (H37Rv)
[13] = Mycobacterium tuberculosis, H37RV, read-out: Mycobacterium tuberculosis MIC, H37Rv
[14] = Chlorocebus sabaeus, Vero, 72 h, read-out: Cell viability IC50, VERO
[15] = Homo sapiens, HepG2, 72 h; read-out: Cell viability IC50, HepG2
[16] = Mycobacterium tuberculosis, ERDMAN; read-out: Mycobacterium tuberculosis MIC, Erdman
[17] = Mycobacterium tuberculosis, H37RV; as determined in Example 2; read-out: MIC (H37Rv)
[18] = Mycobacterium tuberculosis, H37RV; read-out: Mycobacterium tuberculosis MIC, H37Rv
[19] = Chlorocebus sabaeus, Vero, 72 h; read-out: Cell viability IC50, VERO

| SMILES | IC50 [2, 9] | Selectivity Index (SI) Erd/HepG2 [3] | Selectivity Index (SI) Erd/VERO [3] | MIC (MRSA ATCC BAA-1556; read-out: MRSA MIC) | MIC (MRSA ATCC BAA-1556; [10]) | MIC (MRSA ATCC 43300) | IC50 [4] | MIC (MRSA 880 NR-49120) | MIC (M.tb Erdman; [11]) | MIC (M.tb H37Rv; [13]) | IC50 [5, 14] | IC50 [2, 15] | MIC (M.tb Erdman; [16]) | MIC (M.tb H37Rv; [17]) | MIC (M.tb H37Rv; [18]) | IC50 [5, 19] | further results |
| --- | --- | --- | --- | --- | --- | --- | --- | --- | --- | --- | --- | --- | --- | --- | --- | --- | --- |
| Cl.Cn1nnc(-c2ccc(-c3ccc(N4C[C@H](CN)OC4=O)cc3F)cn2)n1 [AKG-3] | 21.2 µg/mL | 169.6 | 142.4 | > 50 µg/mL | 50 µg/mL | 50 µg/mL | 0.115 µg/mL | 50 µg/mL | 0.125 µg/mL | 0.06 µg/mL | 17.8 µg/mL | – | – | – | – | – | Maximum encapsulated drug payload ([1]; 0.5 mol% PEG): 590 g/mol PhL; Maximum encapsulated drug payload ([1]; 5 mol% PEG): 600-606 g/mol PhL; loading efficiency at or near the maximum drug load [1, 8]: at least 97.6%; maximum drug load [1, 8]: 900-930 g/mol PhL; Drug loading efficiency ([1]; PEG-DSG 0.5 mol%, 1 N TEA-SOS, DL0 500 g/mol PhL): 100.8; Drug loading efficiency ([1]; PEG-DSG 0.5 mol%, […] AS, DL0 250 g/mol PhL): 100.4; Drug loading efficiency ([1]; PEG-DSG 0.5 mol%, […] AS, DL0 500 g/mol PhL): 80.3; Drug loading efficiency ([1]; PEG-DSG 5 mol%, 1 N TEA-SOS, DL0 500 g/mol PhL): 107.4; MIC (M.tb H37Rv; [12]): 0.06 µg/mL |
| CN(C)CCn1nnc(-c2ccc(-c3ccc(N4C[C@H](CO)OC4=O)cc3F)cn2)n1 [AKG-16] | – | – | – | – | 1.85 µg/mL (≈ 4.33 µM) | 1.85 µg/mL (≈ 4.33 µM) | 0.244 µg/mL (≈ 0.571 µM) | 1.85 µg/mL (≈ 4.33 µM) | – | – | – | 91 µg/mL (≈ 213 µM) | 0.25 µg/mL (≈ 0.585 µM) | 0.25 µg/mL (≈ 0.585 µM) | 0.25 µg/mL (≈ 0.585 µM) | 97 µg/mL (≈ 227 µM) | Maximum encapsulated drug payload ([1]; 0.5 mol% PEG): 668-675 g/mol PhL; Maximum encapsulated drug payload ([1]; 5 mol% PEG): 614-619 g/mol PhL; maximum drug load [1, 8]: 938-951 g/mol PhL; Concentration % (w/w) of free base (visually clear solution) [6]: 30.0 % (w/w) |
| Cl.NCCn1nnnc1-c1ccc(-c2ccc(N3C[C@H](CO)OC3=O)cc2F)cn1 [AKG-22] | – | 17.2 | 57.7 | – | 1.85 to 5.55 µg/mL | 16.7 µg/mL | 1.18 µg/mL | 5.55 µg/mL | – | – | – | 17.2 µg/mL | 1 µg/mL | 0.5 µg/mL | 0.5 µg/mL | 57.7 µg/mL | – |
| Cl.Cl.NCCn1nnc(-c2ccc(-c3ccc(N4C[C@H](CN)OC4=O)cc3F)cn2)n1 [AKG-29] | 74.4 µg/mL | 297.6 | 439.6 | > 50 µg/mL | 50 µg/mL | > 50 µg/mL | 4.11 µg/mL | 50 µg/mL | 0.25 µg/mL | 0.125 µg/mL | 110 µg/mL | – | – | – | – | – | MIC (M.tb H37Rv; [12]): 0.125 µg/mL |
| CN(C)CCCn1nnc(-c2ccc(-c3ccc(N4C[C@H](CN)OC4=O)cc3F)cn2)n1 [AKG-30] | 18.9 µg/mL (≈ 42.9 µM) | 151.2 | 884.0 | > 50 µg/mL | > 50 µg/mL | > 50 µg/mL | – | > 50 µg/mL | 0.125 µg/mL (≈ 0.284 µM) | 0.125 µg/mL (≈ 0.284 µM) | 110 µg/mL (≈ 251 µM) | – | – | – | – | – | – |
| CCN(CC)CCn1nnc(-c2ccc(-c3ccc(N4C[C@H](CNC(C)=O)OC4=O)cc3F)cn2)n1 [AKG-39] | – | 140.0 | 402.0 | – | 1.85 µg/mL (≈ 3.73 µM) | 1.85 µg/mL (≈ 3.73 µM) | 0.06 µg/mL (≈ 0.121 µM) | 1.85 µg/mL (≈ 3.73 µM) | – | – | – | 70 µg/mL (≈ 141 µM) | 0.5 µg/mL (≈ 1.01 µM) | 0.5 µg/mL (≈ 1.01 µM) | 0.5 µg/mL (≈ 1.01 µM) | 201 µg/mL (≈ 405 µM) | MIC (M.tb Erdman; Mycobacterium tuberculosis; M. tuberculosis Erdman / H37Rv, strains not separated; read-out: MIC): 0.5 µg/mL (≈ 1.01 µM) |
| CCN(CC)CCCn1nnc(-c2ccc(-c3ccc(N4C[C@H](CNC(C)=O)OC4=O)cc3F)cn2)n1 [AKG-40] | – | 113.0 | >250.0 | – | 1.85 µg/mL (≈ 3.62 µM) | 5.55 µg/mL (≈ 10.9 µM) | 0.064 µg/mL (≈ 0.125 µM) | 1.85 µg/mL (≈ 3.62 µM) | – | – | – | 113 µg/mL (≈ 221 µM) | 1 µg/mL (≈ 1.96 µM) | 0.5 µg/mL (≈ 0.979 µM) | 0.5 µg/mL (≈ 0.979 µM) | > 250 µg/mL | Mycobacterium tuberculosis MIC, Erdman (M.tb Erdman): 1 to 2 µg/mL; Mycobacterium tuberculosis MIC, H37Rv (M.tb H37Rv): 0.5 µg/mL |
| CCCCCCCCCC(=O)N[C@@H](Cc1c[nH]c2ccccc12)C(=O)N[C@H](CC(N)=O)C(=O)N[C@@H](CC(=O)O)C(=O)N[C@@H]1C(=O)NCC(=O)N[C@@H](CCCN)C(=O)N[C@@H](CC(=O)O)C(=O)N[C@H](C)C(=O)N[C@@H](CC(=O)O)C(=O)NCC(=O)N[C@H](CO)C(=O)N[C@@H]([C@H](C)CC(=O)O)C(=O)N[C@@H](CC(=O)c2ccccc2N)C(=O)O[C@@H]1C [Daptomycin] | – | – | – | – | – | – | – | – | – | – | – | – | – | – | – | – | efficacy on day 6 post inoculation ([7]; DAP 2 mg/kg daily x4 alone or plus a single dose of Ls-AKG38 40 mg/kg): no significant efficacy; Kidneys, MRSA count ([7]; (relapse)): 8.11 ± 0.49 log10 cfu/gm of tissue; Liver, MRSA count ([7]; (relapse)): 7.65 ± 0.26 log10 cfu/gm of tissue; Lungs, MRSA count ([7]; (relapse)): 8.00 ± 0.66 log10 cfu/gm of tissue; Spleen, MRSA count ([7]; (relapse)): 7.91 ± 0.54 log10 cfu/gm of tissue; Vegetations, MRSA count ([7]; (relapse)): 9.18 ± 0.22 log10 cfu/gm of tissue; Kidneys, MRSA count ([7]; day 6): 6.90 ± 0.61 log10 cfu/gm of tissue; Liver, MRSA count ([7]; day 6): 6.77 ± 0.90 log10 cfu/gm of tissue; Lungs, MRSA count ([7]; day 6): 6.37 ± 0.64 log10 cfu/gm of tissue; Spleen, MRSA count ([7]; day 6): 7.43 ± 0.38 log10 cfu/gm of tissue; Vegetations, MRSA count ([7]; day 6): 8.13 ± 0.17 log10 cfu/gm of tissue |
